Read-outs that look alike come from different tables or passages of the source.
Assays:
[1] = Stability in liver microsome, dog; assay type: in vitro ADME; conditions: liver microsomes; dog liver microsome 0.1 mg/mL, compound 1 μM, NADPH 2 mM
Method: (§1) Then two parallel samples were prepared. After a 10 minutes preincubation at 37° C., 15 μL of NADPH solution (8 mM) was added according to the point-in-time. The final concentration of the text compound was 1 μM, the concentration of liver microsome was 0.1 mg/mL, the final concentration of NADPH was 2 mM. The incubations were last for 0, 15, 30, 60 min respectively, and then 150 μL of acetonitrile (include interior label) was added to the mixture system. After dilution with acetonitrile, the samples were centrifuged for 5 minutes in 4000 rpm. The supernatant liquid was collected for LC-MS/MS analysis.

[2] = Stability in liver microsome, monkey; assay type: in vitro ADME; conditions: liver microsomes; monkey liver microsome 0.1 mg/mL, compound 1 μM, NADPH 2 mM
Method: as §1

[3] = Stability in liver microsome, mouse; assay type: in vitro ADME; conditions: liver microsomes; mouse liver microsome 0.1 mg/mL, compound 1 μM, NADPH 2 mM
Method: as §1

[4] = PK of test compounds in beagle; assay type: in vivo, beagle dog; conditions: for Cmax / Tmax / clearance / half-life / AUC(0-inf) / AUC(0-t) / Vd: dog, plasma; for AUC(0-inf): AUC in 0 hour to infinite time; for Vd: read-out: Vss; for F: absolute bioavailability
Method: The test compounds were administrated to beagle dog by gavage in dose of 2.5 mg/kg or 5 mg/kg, or by intravenous injection in dose of 1 mg/kg or 2 mg/kg. Blood sample was collected at 0.083, 0.25, 0.5, 1, 2, 4, 6, 8 and 24 hours from vein after administration into anticoagulation tubes with EDTA-K2. The test compounds were extracted from plasma samples and chromatographed on a tandem mass spectrometer. Quantitation was performed using multiple reaction monitoring (MRM). Pharmacokinetic parameters were calculated using WinNonlin 6.3 software with non compartment model.

HBV = assay: In-vitro anti-HBV activity in stable HBV-producing cell line (HepG2.2.15), HBV DNA by qPCR; assay type: cell-based; conditions: Hepatitis B virus
Method: HBV DNA contents in cell culture fluid were detected by the qPCR-based assay and 50% effective concentration (EC50) values of the compounds against HBV were calculated. Specific procedures are as follows:
HepG2.2.15 cells were seeded into each well of 96-well plates, 40,000 cells per well. Cells were treated with cell culture medium containing compounds with different concentrations for 24 hours after cell seeding. The final concentration of each compound was 16.4 μM in each well and each compound was diluted to desired concentration using 3-fold gradient dilution protocol, 9 diluted points in duplicate. The culture mediums containing the compounds were refreshed on day 4 post cell seeding. Culture media were collected from the HepG2.2.15 plates on day 7 post cell seeding followed by HBV DNA extraction.
HBV DNA extraction: The HBV DNA extraction was performed using QIAamp 96 DNA Blood Kit (QIAGEN 51161).
PCR for quantification: PCR mix was prepared according to PCR system. PCR mix was dispensed to 96-well optical reaction plates (special for quantification). The standard diluted proportionally was added. Then the sample was added; The plates were sealed with optical adhesive film; PCR system was performed according to programs.
Percentage of HBV inhibition of DNA replication by compound was calculated using the following equation: % Inh.=[1-HBV DNA quantity of sample/HBV DNA quantity of DMSO control]×100.
Calculating EC50 value of compounds to HBV replication: the EC50 values were calculated based on “four-parameter logistic equation” and using GraphPad Prism 5 analysis software.

[5] = Stability in liver microsome, human; assay type: in vitro ADME; conditions: liver microsomes; human liver microsome 0.1 mg/mL, compound 1 μM, NADPH 2 mM
Method: as §1

[6] = iv, 1 mg/kg, iv, 1 mg/kg, AUC in 0-24 hours, read-out: AUClast
[7] = 168 h, HepG2.2.15 cells, HBV DNA in culture fluid, day 7, top concentration 16.4 μM
[8] = po, 2.5 mg/kg, po, 2.5 mg/kg value multiplied by 2, read-out: AUClast ×2 (calculated by dosage)
[9] = po, 2.5 mg/kg, po, 2.5 mg/kg, AUC in 0-24 hours, read-out: AUClast
[10] = HepG2.2.15, isomers of compound of formular (II)

Compound	CLint scaled at 1 μM [1] [L/h/kg]	half-life at 1 μM [1] [h]	CLint scaled at 1 μM [2] [L/h/kg]	half-life at 1 μM [2] [h]	CLint scaled at 1 μM [3] [L/h/kg]	half-life at 1 μM [3] [h]	Cmax ([4]; iv, 1 mg/kg) [µg/mL]	Tmax ([4]; iv, 1 mg/kg) [h]	clearance ([4]; iv, 1 mg/kg) [L/h/kg]	half-life ([4]; iv, 1 mg/kg) [h]	AUC(0-inf) ([4]; iv, 1 mg/kg) [µg·h/mL]	AUC(0-t) [4, 6] [µg·h/mL]	Vd ([4]; iv, 1 mg/kg) [L/kg]	EC50 (HBV; [7]) [µM]	CLint scaled at 1 μM [5] [L/h/kg]	half-life at 1 μM [5] [h]	Cmax ([4]; po, 2.5 mg/kg) [µg/mL]	Tmax ([4]; po, 2.5 mg/kg) [h]	half-life ([4]; po, 2.5 mg/kg) [h]	AUC(0-inf) ([4]; po, 2.5 mg/kg) [µg·h/mL]	also measured
CCOC(=O)C1=C(CN2CCO[C@H](CCC(=O)O)C2)NC(c2nccs2)=N[C@H]1c1ccc(F)cc1Br [Example 2, 3-((R)-4-(((R)-6-(2-Bromo-4-fluorophenyl)-5-(ethoxycarbonyl)-2-(thiazol-2-yl)-3,6-dihydropyrimidin-4-yl)methyl)morpholin-2-yl)propanoic acid]	0.859	4.02	6.45	0.314	23.1	0.236	2.05	0.083	0.116	5.71	8.7	8.27	0.756	0.035	1.05	1.66					Cmax ([4]; po, 5 mg/kg): 6.33 µg/mL; Tmax ([4]; po, 5 mg/kg): 1.33 h; half-life ([4]; po, 5 mg/kg): 5.1 h; AUC(0-inf) ([4]; po, 5 mg/kg): 49.6 µg·h/mL; AUC(0-t) ([4]; po, 5 mg/kg, po, 5 mg/kg, AUC in 0-24 hours, read-out: AUClast): 47.9 µg·h/mL; F ([4]; po, 5 mg/kg): 114.1%
CCOC(=O)C1=C(CN2CCO[C@H](CCC(=O)O)C2)NC(c2nccs2)=N[C@H]1c1ccc(F)cc1Cl [Example 9, 3-((R)-4-(((R)-6-(2-Chloro-4-fluorophenyl)-5-(ethoxycarbonyl)-2-(thiazol-2-yl)-3,6-dihydropyrimidin-4-yl)methyl)morpholin-2-yl)propanoic acid]	1.17	2.96	4.53	0.447	16.8	0.324	2.57	0.083	0.0906	6.59	11.3	10.6	0.63	0.048	0.687	2.53	4.36	0.5	4.62	24.8	AUC(0-t) [4, 8]: 48.6 µg·h/mL; AUC(0-t) [4, 9]: 24.3 µg·h/mL; F ([4]; po, 2.5 mg/kg): 87.91%; EC50 (HBV; [10]): 0.048 µM
COC(=O)C1=C(CN2CCO[C@H](CCC(=O)O)C2)NC(c2nccs2)=N[C@H]1c1ccc(F)cc1Cl [Example 10, 3-((R)-4-(((R)-6-(2-Chloro-4-fluorophenyl)-5-(methoxycarbonyl)-2-(thiazol-2-yl)-3,6-dihydropyrimidin-4-yl)methyl)morpholin-2-yl)propanoic acid]	0.368	9.39	0.925	2.19	3.46	1.58	2.43	0.083	0.104	5.16	9.71	9.4	0.62	0.045	0.223	7.78	4.56	0.833	4.57	28	AUC(0-t) [4, 8]: 54 µg·h/mL; AUC(0-t) [4, 9]: 27.4 µg·h/mL; F ([4]; po, 2.5 mg/kg): 115%
COC(=O)C1=C(CN2CCO[C@H](CCC(=O)O)C2)NC(c2nccs2)=N[C@H]1c1ccc(F)cc1Br [Example 11, 3-((R)-4-(((R)-6-(2-Bromo-4-fluorophenyl)-5-(methoxycarbonyl)-2-(thiazol-2-yl)-3,6-dihydropyrimidin-4-yl)methyl)morpholin-2-yl)propanoic acid]	0.604	5.72	0.866	2.34	5.18	1.05	3.4	0.139	0.0954	4.99	10.9	10.5	0.545	0.035	0.416	4.18	4.31	0.75	4.92	24.4	AUC(0-t) [4, 8]: 47.4 µg·h/mL; AUC(0-t) [4, 9]: 23.7 µg·h/mL; F ([4]; po, 2.5 mg/kg): 89.66%
CCOC(=O)C1=C(CN2CCO[C@H](CCC(=O)O)C2)NC(c2nccs2)=N[C@H]1c1ccc(Cl)cc1Cl [Example 12, 3-((R)-4-(((R)-6-(2,4-dichlorophenyl)-5-(ethoxycarbonyl)-2-(thiazol-2-yl)-3,6-dihydropyrimidin-4-yl)methyl)morpholin-2-yl)propanoic acid]	1.05	3.28	7.31	0.277	36.3	0.15	2.23	0.083	0.127	6.2	7.97	7.57	0.832	0.026	1.11	1.56	2.66	0.5	9.07	16.8	AUC(0-t) [4, 8]: 30 µg·h/mL; AUC(0-t) [4, 9]: 15 µg·h/mL; F ([4]; po, 2.5 mg/kg): 84.48%
COC(=O)C1=C(CN2CCO[C@H](CCC(=O)O)C2)NC(c2nccs2)=N[C@H]1c1ccc(Cl)cc1Cl [Example 13, 3-((R)-4-(((R)-6-(2,4-dichlorophenyl)-5-(methoxycarbonyl)-2-(thiazol-2-yl)-3,6-dihydropyrimidin-4-yl)methyl)morpholin-2-yl)propanoic acid]	0.331	10.5	2.16	0.94	8.1	0.673	2.92	0.083	0.0894	5.08	11.6	11.2	0.526	0.028	1.03	1.68	6.41	0.667	5.29	33.3	AUC(0-t) [4, 8]: 64.4 µg·h/mL; AUC(0-t) [4, 9]: 32.2 µg·h/mL; F ([4]; po, 2.5 mg/kg): 105.6%
COC(=O)C1=C(CN2CCOC[C@H]2CCC(=O)O)NC(c2nccs2)=N[C@@H]1c1ccc(F)cc1Br [Example 49, 3-((R)-4-(((S)-6-(2-Bromo-4-fluorophenyl)-5-(methoxycarbonyl)-2-(thiazol-2-yl)-3,6-dihydropyrimidin-4-yl)methyl)morpholin-3-yl)propanoic acid]														> 16.4							
COC(=O)C1=C(CN2CCOC[C@@H]2CCC(=O)O)NC(c2nccs2)=N[C@@H]1c1ccc(F)cc1Br [Example 50, 3-((S)-4-(((S)-6-(2-Bromo-4-fluorophenyl)-5-(methoxycarbonyl)-2-(thiazol-2-yl)-3,6-dihydropyrimidin-4-yl)methyl)morpholin-3-yl)propanoic acid]														> 10.9							
CCOC(=O)C1=C(CN2CCO[C@H](CCC(=O)O)C2)NC(c2nccs2)=N[C@@H]1c1ccc(F)cc1Cl [Example M3]																					EC50 (HBV; [10]): > 16.4 µM
CCOC(=O)C1=C(CN2CCO[C@@H](CCC(=O)O)C2)NC(c2nccs2)=N[C@@H]1c1ccc(F)cc1Cl [Example M4]																					EC50 (HBV; [10]): > 16.4 µM

Reference: patent US9771358B2, “Dihydropyrimidine compounds and their application in pharmaceuticals” (SUNSHINE LAKE PHARMA CO., LTD., priority 2014, dated 2017)
